Legend:
human NAMPT = human NAMPT (Homo sapiens (Human), UniProt P43490); assay: Human recombinant enzyme assay (NMN fluorescence biochemical assay); details: 6 nM human NAMPT, 60 min; for AC1.4 Human: concentration of compound that generates 40% higher activity over basal; for EC50: concentration that gives half-maximal activation
Method in brief: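 Recombinant human NAMPT (6 nM) with 2.5 mM ATP, […] PRPP and […] nicotinamide in HEPES pH 7.2 with DTT, CHAPS, NaCl, MgCl2; 60 min at ambient temperature. NMN derivatised with acetophenone/KOH/formic acid, fluorescence read at 355/460 nm. AC1.4 (40% above basal) and EC50 reported.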

endogenous NAMPT = endogenous NAMPT (Homo sapiens (Human), UniProt P43490); assay: Cellular NAD+ modulation assay in SH-SY5Y cells with doxorubicin; type: cell-based; details: Neuroblastoma SH-SY5Y cells, 40 hours, cellular NAD levels; for EC50: read-out: SY5Y (human) NAD Cell Dox EC50
Protocol: The compounds described herein were also assayed for their ability to stimulate the endogenous NAMPT in a native cellular environment in the cellular NAD+ modulation assay, which measures the ability of the compound to modulate cellular NAD levels. Increased levels of NAD are expected by compounds that permeate the cells and activate the catalytic activity of the endogenous NAMPT.
Neuroblastoma SH-SY5Y cells were grown in 1:1 mixture of Eagle's Minimum Essential Medium and F12 Medium, along with 10% fetal bovine serum, in a humidified incubator with an atmosphere of 95% air and 5% CO2 at 37° C. The assays were initiated by plating 20 μL of SH-SY5Y cells in culture medium with 0.1% fetal bovine serum, at a density of 5000 cells per well to a 384-well Corning™ BioCoat™ Poly-D-Lysine Multiwell Plates. The plates were incubated in the 37° C. incubators for a period of 5 hours. Compounds in DMSO were added to the plates in a volume of 120 nL using the Labcyte Echo Liquid Handlers. 5 μL of a 1.5 uM Doxorubicin solution in assay medium is added to each well. The plates are then incubated for 40 hours. 30 μL of a readout-solution containing 0.2 U/mL Diaphorase enzyme, 40 uM resazurin, 10 uM FMN, 0.8 U/mL Alcohol dehydrogenase, 3% ethanol, 0.4 mg/mL bovine serum albumin, 0.2% Triton X-100 in 100 mM Tris-HCl, 30 mM EDTA, pH 8.4. The plates were read for fluorescence (Excitation/Emission=540 nm/590 nm) using an EnVision plate reader after 60 mins of incubation at ambient temperature.

Sequence of human NAMPT (P43490 whole entry): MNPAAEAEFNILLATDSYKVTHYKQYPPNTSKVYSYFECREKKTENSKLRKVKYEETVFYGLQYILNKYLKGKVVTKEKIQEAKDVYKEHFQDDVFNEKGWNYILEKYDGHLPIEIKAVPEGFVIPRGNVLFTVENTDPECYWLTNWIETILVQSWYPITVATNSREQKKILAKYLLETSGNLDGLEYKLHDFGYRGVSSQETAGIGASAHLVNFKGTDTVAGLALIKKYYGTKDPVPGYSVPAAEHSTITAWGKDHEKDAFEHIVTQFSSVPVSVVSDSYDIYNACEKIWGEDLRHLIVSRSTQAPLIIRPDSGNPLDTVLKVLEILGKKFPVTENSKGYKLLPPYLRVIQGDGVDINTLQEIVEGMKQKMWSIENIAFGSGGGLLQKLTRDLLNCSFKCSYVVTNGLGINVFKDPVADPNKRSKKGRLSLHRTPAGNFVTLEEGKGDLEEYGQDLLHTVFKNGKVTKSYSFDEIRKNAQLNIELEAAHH
Sequence of endogenous NAMPT (P43490 whole entry): as above

Structure (SMILES) | AC1.4 Human (human NAMPT) [µM] | EC50 (human NAMPT) [nM] | SY5Y (human) NAD Cell Dox AC0.3 (endogenous NAMPT) [µM] | EC50 (endogenous NAMPT) [nM]
Cc1nc(C(=O)N[C@H](C)c2ccccc2Cl)nc(NCCc2cn[nH]c2)c1C [Compound 26, (R)-4-((2-(1H-pyrazol-4-yl)ethyl)amino)-N-(1-(2-chlorophenyl)ethyl)-5,6-dimethylpyrimidine-2-carboxamide] | 0.1215 | 429 | 0.26 | 720
Cc1nc(C(=O)NCC(C)(C)c2cccc(F)c2)nc(NCCc2cn[nH]c2)c1C [Compound 27, 4-((2-(1H-pyrazol-4-yl)ethyl)amino)-N-(2-(3-fluorophenyl)-2-methylpropyl)-5,6-dimethylpyrimidine-2-carboxamide] | 0.1305 | 1630 | 0.28 | 740

The next lines start with the values.

AC1.4 Human (human NAMPT) [µM] | EC50 (human NAMPT) [nM] | SY5Y (human) NAD Cell Dox AC0.3 (endogenous NAMPT) [µM] | EC50 (endogenous NAMPT) [nM] | Structure (SMILES)
0.1725 | 741 | 0.88 | 1600 | Cc1nc(C(=O)N[C@H](C)c2ncccc2Cl)nc(NCCc2cn[nH]c2)c1C [Compound 30, (R)-4-((2-(1H-pyrazol-4-yl)ethyl)amino)-N-(1-(3-chloropyridin-2-yl)ethyl)-5,6-dimethylpyrimidine-2-carboxamide]
<0.003 | – | 0.02 | – | Cc1nc(C(=O)N[C@H](C)c2cccc(F)n2)nc(NCCc2cn[nH]c2)c1Cl [Compound 147, (R)-4-((2-(1H-pyrazol-4-yl)ethyl)amino)-5-chloro-N-(1-(6-fluoropyridin-2-yl)ethyl)-6-methylpyrimidine-2-carboxamide]
0.02 | – | 0.01 | – | Cc1nc(C(=O)N[C@H](C)c2cccc(F)n2)nc(NCCc2cn[nH]c2)c1F [Compound 149, (R)-4-((2-(1H-pyrazol-4-yl)ethyl)amino)-5-fluoro-N-(1-(6-fluoropyridin-2-yl)ethyl)-6-methylpyrimidine-2-carboxamide]
